ChEMBL document CHEMBL4715834, “Design, synthesis and bio-evaluation of novel 2-aryl-4-(3,4,5-trimethoxy-benzoyl)-5-substituted-1,2,3-triazoles as the tubulin polymerization inhibitors” (Eur J Med Chem, 2020)
Converted amounts (≈) assume the structure as drawn. The source made the active and inactive calls. The calls are words filed in the database; no cut-off is given here.

Assays:
A549 = test: Antiproliferative activity against human A549 cells assessed as inhibition of cell growth measured after 72 hrs by MTT assay; assay type: functional, cell-based; conditions: A549, 72 h
HeLa = test: Antiproliferative activity against human HeLa cells assessed as inhibition of cell growth measured after 72 hrs by MTT assay; assay type: functional, cell-based
SGC-7901 [1] = test: Antiproliferative activity against human SGC-7901 cells assessed as inhibition of cell growth measured after 72 hrs by MTT assay; assay type: functional, cell-based; conditions: SGC-7901, 72 h
[2] = Solubility of compound in water at pH 7.4 by UV-HPLC method; assay type: physicochemical
SGC-7901 [3] = test: Cell cycle arrest in human SGC-7901 cells assessed as decrease in G1 cell population at 0.023 uM by propidium iodide staining based flow cytometry; assay type: functional; conditions: time 12-72 hrs, TDE = time-dependent effect
SGC-7901 [4] = test: Cell cycle arrest in human SGC-7901 cells assessed as increase in G2/M cell population at 0.023 uM by propidium iodide staining based flow cytometry; assay type: functional; conditions: time 12-72 hrs, TDE = time-dependent effect
SGC-7901 [5] = test: Cell cycle arrest in human SGC-7901 cells assessed as increase in sub-G1 cell population at 0.023 uM after 72 hrs by propidium iodide staining based flow cytometry; assay type: functional
SGC-7901 [6] = test: Induction of microtubule disruption in human SGC-7901 cells assessed as change in shape of nucleus at 0.084 uM measured after 24 hrs by DAPI staining based immunofluorescence assay; assay type: cell-based
SGC-7901 [7] = test: Induction of microtubule disruption in human SGC-7901 cells assessed as shrinkage of microtubule at 0.084 uM measured after 24 hrs by DAPI staining based immunofluorescence assay; assay type: cell-based
SGC-7901 [8] = test: Induction of microtubule disruption in human SGC-7901 cells assessed as appearance of disorganised microtubule at 0.084 uM measured after 24 hrs by DAPI staining based immunofluorescence assay; assay type: cell-based
SGC-7901 [9] = test: Cell cycle arrest in human SGC-7901 cells assessed as decrease in G1 cell population at 0.084 uM by propidium iodide staining based flow cytometry; assay type: functional; conditions: time 12-72 hrs, TDE = time-dependent effect
SGC-7901 [10] = test: Cell cycle arrest in human SGC-7901 cells assessed as accumulation at G2/M cell population at 0.084 uM measured after 12 hrs by propidium iodide staining based flow cytometry (reference value: 14.5%); assay type: functional
Sus scrofa = species: Sus scrofa; test: (§1) Inhibition of porcine tubulin polymerization measured for 60 mins by fluorescence assay
[11] = as §1; parameters: species or system Sus scrofa
SGC-7901 [12] = test: Cell cycle arrest in human SGC-7901 cells assessed as increase in sub-G1 cell population at 0.084 uM after 72 hrs by propidium iodide staining based flow cytometry; assay type: functional
SGC-7901 [13] = test: Cell cycle arrest in human SGC-7901 cells assessed as increase in G2/M cell population at 0.084 uM by propidium iodide staining based flow cytometry; assay type: functional; conditions: time 12-72 hrs, TDE = time-dependent effect

Row | SMILES | IC50 (A549) [nM] | IC50 (HeLa) [nM] | IC50 (SGC-7901 [1]) [nM] | also measured
1 | COc1cc(C(=O)c2nn(-c3ccccc3)nc2N2CCNCC2)cc(OC)c1OC | 4310 | 342 | 1240 | solubility [2]: 2.2 µg/mL (≈ 5.2 µM)
2 | COc1cc(C(=O)c2nn(-c3ccccc3)nc2N2CCOCC2)cc(OC)c1OC | 488 | 891 | 5860 | –
3 | COc1cc(C(=O)c2csc(-c3ccccc3)n2)cc(OC)c1OC | 34 | 37 | – | Activity (SGC-7901 [3]): Tde; Activity (SGC-7901 [4]): Tde; Activity (SGC-7901 [5]): Active; solubility [2]: < 0.5 µg/mL
4 | COc1ccc(-n2nc(C(=O)c3cc(OC)c(OC)c(OC)c3)c(N3CCN(C(C)=O)CC3)n2)cc1 | 1100 | 208 | 1150 | –
5 | COc1cc(C(=O)c2nn(-c3ccc(Br)cc3)nc2N2CCN(C(C)=O)CC2)cc(OC)c1OC | 9060 | > 30000 | 861 | –
6 | COc1cc(C(=O)c2nn(-c3ccc(C)c(C)c3)nc2N2CCN(C(C)=O)CC2)cc(OC)c1OC | 2610 | 3920 | 4830 | –
7 | COc1cc(C(=O)c2nn(-c3cccc(F)c3)nc2N2CCN(C(C)=O)CC2)cc(OC)c1OC | > 30000 | 6200 | 1690 | –
8 | COc1cc(C(=O)c2nn(-c3ccccc3F)nc2N2CCN(C(C)=O)CC2)cc(OC)c1OC | 4650 | 513 | 171 | –
9 | COc1cc(C(=O)c2nn(-c3ccccc3)nc2N2CCCCC2)cc(OC)c1OC | 6450 | 3620 | 3720 | –
10 | COc1cc(C(=O)c2nn(-c3ccccc3C)nc2N2CCN(C(C)=O)CC2)cc(OC)c1OC | 8350 | 2690 | 2380 | –
11 | COc1cc(C(=O)c2nn(-c3ccccc3)nc2N2CCN(C(C)C)CC2)cc(OC)c1OC | 7300 | 6420 | 2680 | –
12 | COc1cc(C(=O)c2nn(-c3cc(C)ccc3C)nc2N2CCN(C(C)=O)CC2)cc(OC)c1OC | > 30000 | > 30000 | > 30000 | –
13 | COc1ccc(/C=C\c2cc(OC)c(OC)c(OC)c2)cc1O [COMBRETASTATIN A4] | – | – | – | solubility [2]: 0.1 µg/mL (≈ 0.316 µM)

Now from value to compound, other results behind:

Row | IC50 (A549) [nM] | IC50 (HeLa) [nM] | IC50 (SGC-7901 [1]) [nM] | SMILES | also measured
14 | 764 | 298 | 426 | COc1cc(C(=O)c2nn(-c3ccc(C)cc3)nc2N2CCN(C(C)=O)CC2)cc(OC)c1OC | –
15 | 648 | 1360 | 550 | COc1ccc(-n2nc(C(=O)c3cc(OC)c(OC)c(OC)c3)c(N3CCN(C(C)=O)CC3)n2)cc1N | –
16 | > 30000 | 3480 | 344 | COc1cc(C(=O)c2nn(-c3ccc(F)cc3)nc2N2CCN(C(C)=O)CC2)cc(OC)c1OC | –
17 | > 30000 | > 30000 | > 30000 | COc1ccc(-n2nc(C(=O)c3cc(OC)c(OC)c(OC)c3)c(N3CCN(C(C)=O)CC3)n2)cc1[N+](=O)[O-] | –
18 | 133 | 221 | 84 | COc1cc(C(=O)c2nn(-c3ccccc3)nc2N2CCN(C(C)=O)CC2)cc(OC)c1OC | Activity (SGC-7901 [6]): Active; Activity (SGC-7901 [7]): Active; Activity (SGC-7901 [8]): Active; Activity (SGC-7901 [9]): Tde; Activity (SGC-7901 [10]): 53.9%; inhibition (Sus scrofa): Dose-dependent effect; IC50 [11]: 28300 nM; Activity (SGC-7901 [12]): Active; Activity (SGC-7901 [13]): Tde; solubility [2]: 2.7 µg/mL (≈ 5.8 µM)
19 | 684 | 212 | 417 | COc1cc(C(=O)c2nn(-c3ccc([N+](=O)[O-])cc3)nc2N2CCN(C(C)=O)CC2)cc(OC)c1OC | –
20 | 622 | 135 | 6580 | COc1cc(C(=O)c2nn(-c3ccccc3)nc2N2CCN(C)CC2)cc(OC)c1OC | –
21 | > 30000 | > 30000 | > 30000 | COc1cc(C(=O)c2nn(-c3cccc(C)c3)nc2N2CCN(C(C)=O)CC2)cc(OC)c1OC | –
22 | 628 | 1080 | 406 | COc1cc(C(=O)c2nn(-c3ccc(Cl)cc3)nc2N2CCN(C(C)=O)CC2)cc(OC)c1OC | –
23 | 7100 | 11400 | 870 | COc1cc(C(=O)c2cnn(-c3ccccc3)n2)cc(OC)c1OC | solubility [2]: < 0.5 µg/mL
24 | > 30000 | > 30000 | 11300 | COc1cc(C(=O)c2nn(-c3ccccc3)nc2N2CCN(C(=O)OC(C)(C)C)CC2)cc(OC)c1OC | –
